US12187728B2 (Raze Therapeutics, Inc., priority 2015, dated 2025)

Biological target: T1, Human MTHFD2 (Homo sapiens, UniProt P13995)
T1 construct: residues 36-350 in Uniport ID P13995; His6 (N); made in house; host or cells: E. coli
T1 sequence (P13995 36-350): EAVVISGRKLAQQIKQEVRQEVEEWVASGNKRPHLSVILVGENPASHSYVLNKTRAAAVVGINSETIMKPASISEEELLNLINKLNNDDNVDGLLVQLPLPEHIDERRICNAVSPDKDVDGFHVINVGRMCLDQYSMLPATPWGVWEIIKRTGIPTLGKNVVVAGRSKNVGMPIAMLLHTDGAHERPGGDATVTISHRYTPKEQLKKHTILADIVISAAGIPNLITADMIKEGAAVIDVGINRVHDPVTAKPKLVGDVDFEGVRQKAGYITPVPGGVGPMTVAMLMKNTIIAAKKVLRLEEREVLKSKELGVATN
Test: MTHFD2 Activity Assay (dehydrogenase activity, diaphorase/resazurin coupled fluorescence)
Type: biochemical
Conditions: inhibitory activity (IC50 and/or binding constant); 0.2 nM MTHFD2, 11 concentrations
How it was run: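 Steps: compound + 0.2 nM enzyme, 15 min, pH 8.0 Hepes buffer; add 70 μM CH2-THF, 1 mM NAD+, 100 μM resazurin, diaphorase; 30 min; quench with EDTA; read fluorescence. Data normalized to DMSO (100%) and no-enzyme (0%) wells.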

Row | IC50 [nM] | SMILES
1 | 10 to 1000 | COc1nc2c(c(=O)n(Cc3cc4cccc(Cl)c4n3C)c(=O)n2C)n1C [Example 433, 1-[(7-chloro-1-methyl-indol-2-yl)methyl]-8-methoxy-3,7-dimethyl-purine-2,6-dione]
2 | 10 to 1000 | Cn1c(N[C@@H]2CCC[C@@H](O)C2)nc2c1c(=O)n(Cc1ccc(Cl)c(Cl)c1)c(=O)n2C (racemic) [Example 172, (±)-1-(3,4-dichlorobenzyl)-8-((trans)-3-hydroxycyclohexylamino)-3,7-dimethyl-1H-purine-2,6(3H,7H)-dione]
3 | 1000 to 5000 | Cn1c(NC2CCCCC2)nc2c1c(=O)n(Cc1ccc(Cl)c(Cl)c1)c(=O)n2C [Example 59, 8-(cyclohexylamino)-1-[(3,4-dichlorophenyl)methyl]-3,7-dimethyl-2,3,6,7-tetrahydro-1H-purine-2,6-dione]
4 | 10 to 1000 | Cn1c(NC2(CO)CCCC2)nc2c1c(=O)n(Cc1ccc(Cl)c(Cl)c1)c(=O)n2C [Example 124, 1-(3,4-dichlorobenzyl)-8-(1-(hydroxymethyl)cyclopentylamino)-3,7-dimethyl-1H-purine-2,6(3H,7H)-dione]
5 | > 10000 | COCc1cc(Cn2c(=O)c3c(ncn3C)n(C)c2=O)ccc1Cl [Example 252, 1-(4-chloro-3-(methoxymethyl)benzyl)-3,7-dimethyl-1H-purine-2,6(3H,7H)-dione]
6 | 1000 to 5000 | COCCNc1nc2c(c(=O)n(Cc3ccc(Cl)c(Cl)c3)c(=O)n2C)n1C [Example 273, 1-[(3,4-dichlorophenyl)methyl]-8-(2-methoxyethylamino)-3,7-dimethyl-purine-2,6-dione]
7 | 1000 to 5000 | Cn1cnc2c1c(=O)n(Cc1cc3cc(C#N)ccc3[nH]1)c(=O)n2C [Example 257, 2-((3,7-dimethyl-2,6-dioxo-2,3,6,7-tetrahydro-1H-purin-1-yl)methyl)-1H-indole-5-carbonitrile]
8 | 10 to 1000 | Cn1c(NC2CCCNC2=O)nc2c1c(=O)n(Cc1ccc(Cl)c(Cl)c1)c(=O)n2C (racemic) [Example 89, (±)-1-[(3,4-dichlorophenyl)methyl]-3,7-dimethyl-8-[(2-oxopiperidin-3-yl)amino]-2,3,6,7-tetrahydro-1H-purine-2,6-dione]
9 | 10 to 1000 | Cn1c(N[C@H]2CC[C@@H](O)C2)nc2c1c(=O)n(Cc1ccc(Cl)c(Cl)c1)c(=O)n2C (single isomer, unassigned) [Example 71, 1-(3,4-dichlorobenzyl)-8-((1S,3R)-3-hydroxycyclopentylamino)-3,7-dimethyl-1H-purine-2,6(3H,7H)-dione or 1-(3,4-dichlorobenzyl)-8-((1R,3S)-3-hydroxycyclopentylamino)-3,7-dimethyl-1H-purine-2,6(3H,7H)-dione]
10 | 1000 to 5000 | Cn1c(C(N)=O)nc2c1c(=O)n(Cc1ccc(Cl)c(Cl)c1)c(=O)n2C [Example 244, 1-(3,4-dichlorobenzyl)-3,7-dimethyl-2,6-dioxo-2,3,6,7-tetrahydro-1H-purine-8-carboxamide]
11 | 10 to 1000 | Cn1c(NCCC(=O)O)nc2c1c(=O)n(Cc1ccc(Cl)c(Cl)c1)c(=O)n2C [Example 37, 3-({1-[(3,4-dichlorophenyl)methyl]-3,7-dimethyl-2,6-dioxo-2,3,6,7-tetrahydro-1H-purin-8-yl}amino)propanoic acid]
12 | 5000 to 10000 | C[C@H](O)CNc1nc2c(c(=O)n(Cc3ccc(Cl)cc3)c(=O)n2C)n1C [Example 18, 1-[(4-chlorophenyl)methyl]-8-{[(2S)-2-hydroxypropyl]amino}-3,7-dimethyl-2,3,6,7-tetrahydro-1H-purine-2,6-dione]
13 | 1000 to 5000 | Cn1c(NC2CCCC(N)C2)nc2c1c(=O)n(Cc1ccc(Cl)c(Cl)c1)c(=O)n2C (centres unmarked) [Example 85, 8-((3-aminocyclohexyl)amino)-1-(3,4-dichlorobenzyl)-3,7-dimethyl-3,7-dihydro-1H-purine-2,6-dione]

Further lines, the compound ahead of its results:

Row | SMILES | IC50 [nM]
14 | Cn1c(Nc2cccc(CCC(=O)O)n2)nc2c1c(=O)n(Cc1ccc(Cl)c(Cl)c1)c(=O)n2C [Example 282, 3-(6-(1-(3,4-dichlorobenzyl)-3,7-dimethyl-2,6-dioxo-2,3,6,7-tetrahydro-1H-purin-8-ylamino)pyridin-2-yl)propanoic acid] | 10 to 1000
15 | Cn1c(Nc2cccc([C@H]3C[C@H]3C(=O)O)n2)nc2c1c(=O)n(Cc1cc3c(Cl)cccc3[nH]1)c(=O)n2C (racemic) [Example 372, (±)-cis-2-(6-((1-((4-chloro-1H-indol-2-yl)methyl)-3,7-dimethyl-2,6-dioxo-2,3,6,7-tetrahydro-1H-purin-8-yl)amino)pyridin-2-yl)cyclopropane-1-carboxylic acid] | 10 to 1000
16 | CN(C)C(=O)CCc1cccc(Nc2nc3c(c(=O)n(Cc4cc5c(Cl)cccc5[nH]4)c(=O)n3C)n2C)n1 [Example 329, 3-(6-(1-((4-chloro-1H-indol-2-yl)methyl)-3,7-dimethyl-2,6-dioxo-2,3,6,7-tetrahydro-1H-purin-8-ylamino)pyridin-2-yl)-N,N-dimethylpropanamide] | 10 to 1000
17 | Cn1c(N[C@@H]2CCC[C@H](C(=O)O)C2)nc2c1c(=O)n(Cc1ccc(Cl)c(Cl)c1)c(=O)n2C (single isomer, unassigned) [Example 184, (1S,3R)-3-(1-(3,4-dichlorobenzyl)-3,7-dimethyl-2,6-dioxo-2,3,6,7-tetrahydro-1H-purin-8-ylamino)cyclohexanecarboxylic acid or (1R,3S)-3-(1-(3,4-dichlorobenzyl)-3,7-dimethyl-2,6-dioxo-2,3,6,7-tetrahydro-1H-purin-8-ylamino)cyclohexanecarboxylic acid] | 10 to 1000
18 | Cn1c(N[C@@H]2CC[C@@H](O)C2)nc2c1c(=O)n(Cc1ccc(C(F)(F)F)cc1)c(=O)n2C (single isomer, unassigned) [Example 144, 8-((1R,3R)-3-hydroxycyclopentylamino)-3,7-dimethyl-1-(4-(trifluoromethyl)benzyl)-1H-purine-2,6(3H,7H)-dione or 8-((1S,3S)-3-hydroxycyclopentylamino)-3,7-dimethyl-1-(4-(trifluoromethyl)benzyl)-1H-purine-2,6(3H,7H)-dione] | 1000 to 5000
19 | Cn1c(Nc2ccc(Cl)c(CCC(=O)O)n2)nc2c1c(=O)n(Cc1cc3c(Cl)cccc3[nH]1)c(=O)n2C [Example 396, 3-(3-chloro-6-(1-((4-chloro-1H-indol-2-yl)methyl)-3,7-dimethyl-2,6-dioxo-2,3,6,7-tetrahydro-1H-purin-8-ylamino)pyridin-2-yl)propanoic acid] | 10 to 1000
20 | Cc1ccc2[nH]c(Cn3c(=O)c4c(nc(N[C@H]5CC[C@@H](O)C5)n4C)n(C)c3=O)cc2c1 (racemic) [Example 177, (±)-8-((cis)-3-hydroxycyclopentylamino)-3,7-dimethyl-1-((5-methyl-1H-indol-2-yl)methyl)-1H-purine-2,6(3H,7H)-dione] | 10 to 1000
21 | Cn1c(C(N)Cc2ccccc2)nc2c1c(=O)n(Cc1cc3c(Cl)cccc3[nH]1)c(=O)n2C (centres unmarked) [Example 450, 8-(1-amino-2-phenylethyl)-1-((4-chloro-1H-indol-2-yl)methyl)-3,7-dimethyl-1H-purine-2,6(3H,7H)-dione] | 10 to 1000
22 | Cn1c(Nc2ccc(-c3ccccc3)cn2)nc2c1c(=O)n(Cc1cc3c(Cl)cccc3[nH]1)c(=O)n2C [Example 400, 1-[(4-chloro-1H-indol-2-yl)methyl]-3,7-dimethyl-8-[(5-phenyl-2-pyridyl)amino]purine-2,6-dione] | 1000 to 5000
23 | Cn1c(Nc2ccncc2)nc2c1c(=O)n(Cc1cc3c(C(F)(F)F)cccc3[nH]1)c(=O)n2C [Example 404, 3,7-dimethyl-8-(pyridin-4-ylamino)-1-((4-(trifluoromethyl)-1H-indol-2-yl)methyl)-1H-purine-2,6(3H,7H)-dione] | 10 to 1000
24 | Cn1c(C(O)C2CCC(C(=O)O)CC2)nc2c1c(=O)n(Cc1ccc(Cl)c(Cl)c1)c(=O)n2C (centres unmarked) [Example 270, 4-((1-(3,4-dichlorobenzyl)-3,7-dimethyl-2,6-dioxo-2,3,6,7-tetrahydro-1H-purin-8-yl)(hydroxy)methyl)cyclohexanecarboxylic acid] | 1000 to 5000
25 | Cn1c(N[C@@H]2CCC[C@@H]2N)nc2c1c(=O)n(Cc1cc3c(Cl)cccc3[nH]1)c(=O)n2C [Example 395, 8-((1R,2S)-2-aminocyclopentylamino)-1-((4-chloro-1H-indol-2-yl)methyl)-3,7-dimethyl-1H-purine-2,6(3H,7H)-dione] | 1000 to 5000
26 | Cn1c(N[C@H]2CC[C@@H](O)C2)nc2c1c(=O)n(Cc1ccc(C(F)(F)F)cc1)c(=O)n2C (racemic) [Example 171, (±)-8-((cis)-3-hydroxycyclopentylamino)-3,7-dimethyl-1-(4-(trifluoromethyl)benzyl)-1H-purine-2,6(3H,7H)-dione] | 1000 to 5000
27 | Cn1c(Nc2cccnc2)nc2c1c(=O)n(Cc1cc3c(Cl)cccc3[nH]1)c(=O)n2C [Example 343, 1-((4-chloro-1H-indol-2-yl)methyl)-3,7-dimethyl-8-(pyridin-3-ylamino)-1H-purine-2,6(3H,7H)-dione] | 10 to 1000
28 | Cn1c(Nc2cccc(CCC(N)=O)n2)nc2c1c(=O)n(Cc1cc3c(Cl)cccc3[nH]1)c(=O)n2C [Example 304, 3-(6-(1-((4-chloro-1H-indol-2-yl)methyl)-3,7-dimethyl-2,6-dioxo-2,3,6,7-tetrahydro-1H-purin-8-ylamino)pyridin-2-yl)propanamide] | 10 to 1000
29 | Cn1c(NC2CC(F)(F)C2)nc2c1c(=O)n(Cc1ccc(C(F)(F)F)cc1)c(=O)n2C [Example 145, 8-(3,3-difluorocyclobutylamino)-3,7-dimethyl-1-(4-(trifluoromethyl)benzyl)-1H-purine-2,6(3H,7H)-dione] | > 10000
